Where two headings read alike, the source gives them in different places. No end group written: not given here.
Target: HLA-Cw*0102 (Homo sapiens, UniProt P10321, A176E/A330V/A35S/A97T/C350S/D114A/D33F/L171W/L180R/L218V/M285V/M309V/M331V/P208H/Q277E/Q291P/R121W/R243W/R30K/S123C/S140Y/S297R/T329A/T363A/V272M/V319A)
Assay: FACS-based MHC stabilisation assay (peptide binding, T2 cells)
[1] = Table 3 newly-designed peptides, T2 cells, peptide 200-0.04 µM, 16 h 37°C, mAb VP6G3, flow cytometry, read-out: pBL50 (exp) (converted)
[2] = Table 4 HIV-1 peptides, T2 cells, peptide 200-0.04 µM, 16 h 37°C, mAb VP6G3, flow cytometry, read-out: pBL50 (exp) (converted)

CC(C)[C@H](NC(=O)[C@H](C)N)C(=O)N[C@@H](CC(=O)O)C(=O)N[C@@H](C)C(=O)N[C@@H](CC(=O)O)C(=O)N[C@@H](CC(=O)O)C(=O)N[C@@H](CO)C(=O)N[C@@H](Cc1c[nH]cn1)C(=O)N[C@@H](Cc1ccccc1)C(=O)O [A V D A D D S H F]
EC50: > 1000 µM

CC(C)C[C@H](NC(=O)[C@H](C)NC(=O)[C@@H]1CCCN1C(=O)[C@H](Cc1ccc(O)cc1)NC(=O)[C@H](CC(N)=O)NC(=O)CNC(=O)[C@@H]1CCCN1C(=O)[C@H](C)NC(=O)[C@@H](N)Cc1ccccc1)C(=O)O [F A P G N Y P A L]
EC50 (pBL50(exp)): 0.189 µM

CC[C@H](C)[C@H](N)C(=O)N[C@@H](CC(C)C)C(=O)N[C@@H](CCCCN)C(=O)N[C@@H](CCC(=O)O)C(=O)N1CCC[C@H]1C(=O)N[C@H](C(=O)N[C@@H](Cc1cnc[nH]1)C(=O)NCC(=O)N[C@H](C(=O)O)C(C)C)C(C)C [I L K E P V H G V]
EC50 (pBL50(exp)): > 1000 µM

CSCC[C@H](NC(=O)[C@H](C)NC(=O)[C@H](CCC(N)=O)NC(=O)[C@H](CO)NC(=O)[C@@H]1CCCN1C(=O)[C@@H](N)CC(C)C)C(=O)N[C@@H](CC(=O)O)C(=O)N[C@@H](CC(=O)O)C(=O)N[C@@H](CC(C)C)C(=O)O [L P S Q A M D D L]
EC50 (pBL50(exp)): > 1000 µM

AAPAYSRAL [A A P A Y S R A L]
EC50 (pBL50(exp)): 1.77 µM

ACPERIITL
EC50 [1]: 0.185 µM

ADAEKPFYV [A D A E K P F Y V]
EC50 (pBL50(exp)): > 1000 µM

ADDSHFVSI [A D D S H F V S I]
EC50: > 1000 µM

AQPQTTTPL [A Q P Q T T T P L]
EC50 (pBL50(exp)): 0.122 µM

ATSPIVPSL [A T S P I V P S L]
EC50: 4.15 µM

CAPAGFAIL
EC50 [2]: 0.00987 µM

CAPREPHVV
EC50 (pBL50(exp)): 0.38 µM

CMPDWLDRL
EC50 (pBL50(exp)): 0.331 µM

DADDSHFVS [D A D D S H F V S]
EC50: > 1000 µM

DLLTSPDVG [D L L T S P D V G]
EC50 (pBL50(exp)): > 1000 µM

EAPMWDHWL
EC50 (pBL50(exp)): 0.49 µM

ECPQGITPV
EC50 (pBL50(exp)): 0.109 µM

EFPWVFIEL
EC50 (pBL50(exp)): 0.355 µM

ELIRTVRLI
EC50: > 1000 µM

ELQAIYLAL [ELQAIYLAL]
EC50 [2]: 1.25 µM

EQFGNKTIV
EC50: > 1000 µM

EQPERYESV
EC50 (pBL50(exp)): 0.132 µM

FAPYNKPSL [F A P Y N K P S L]
EC50 (pBL50(exp)): 0.611 µM

FMPIMKNEV
EC50 (pBL50(exp)): 0.676 µM

FPISPIETV
EC50: > 1000 µM

FQSSMTKIL
EC50 [2]: 0.701 µM

GADAEKPFY [G A D A E K P F Y]
EC50 (pBL50(exp)): > 1000 µM

GIPEPAHAY [G I P E P A H A Y]
EC50 (pBL50(exp)): > 1000 µM

HLPETKFSE [H L P E T K F S E]
EC50 (pBL50(exp)): > 1000 µM

HMPDVGCIL
EC50 (pBL50(exp)): 0.178 µM

HNPGIATPV
EC50 (pBL50(exp)): 0.661 µM

I L S P L T K G I: initial-set nonamer, Table 1 No. 13
pBL50(exp): 3.061

ILRRPTSPV [I L R R P T S P V]
EC50: 7.96 µM

ILSPRKESV [I L S P R K E S V]
EC50 (pBL50(exp)): 17.2 µM

ILSPRSESV [I L S P R S E S V]
EC50 (pBL50(exp)): 2.62 µM

ILSPRSKES [I L S P R S K E S]
EC50 (pBL50(exp)): 292 µM

ILSPSKESV [I L S P S K E S V]
EC50 (pBL50(exp)): 11.4 µM

ILSPSKESV [peptide 17]
EC50 (pBL50 / binder class as quoted in text): 1 to 31.6 µM

ILSRSKESV [I L S R S K E S V]
pBL50 / binder class as quoted in text: non-binder
EC50 (pBL50(exp)): > 1000 µM

IPEPAHAYA [I P E P A H A Y A]
EC50 (pBL50(exp)): > 1000 µM

ITPTGTHPL [I T P T G T H P L]
EC50 (pBL50(exp)): 0.283 µM

IVIWGKTPK
EC50: > 1000 µM

IVRMYSPTS
EC50: > 1000 µM

IVTRIVELL
EC50 [2]: 1.12 µM

KATSPIVPS [K A T S P I V P S]
EC50: > 1000 µM

KSPLDIVNL
EC50 (pBL50(exp)): 1.91 µM

LGPEKLQYL
EC50 (pBL50(exp)): 0.151 µM

LITPKKIKP
EC50: > 1000 µM

LLKLASPEL [L L K L A S P E L]
EC50 (pBL50(exp)): > 1000 µM

LLRWGFTTP
EC50 [2]: 2.05 µM

LLTSPDVGL [L L T S P D V G L]
EC50 (pBL50(exp)): 11.7 µM

LPETKFSEL [L P E T K F S E L]
EC50 (pBL50(exp)): 6.37 µM

LQILAIVAL [LQILAIVAL]
EC50 [2]: 0.766 µM

LSPLTKGIL [L S P L T K G I L]
EC50: 3.79 µM

LSPPKKKDL [L S P P K K K D L]
EC50 (pBL50(exp)): > 1000 µM

LSPRSKESV [L S P R S K E S V]
EC50 (pBL50(exp)): 0.91 µM

LTEEKIKAL [LTEEKIKAL]
EC50 [2]: 5.19 µM

LTSPDVGLL [L T S P D V G L L]
EC50 (pBL50(exp)): 27.4 µM

LVSAGIRKV
EC50: > 1000 µM

MQPSRGKTL
EC50 (pBL50(exp)): 0.17 µM

NAPERIITL
EC50 (pBL50(exp)): 0.00314 µM

NAPWAVTSL [N A P W A V T S L]
EC50 (pBL50(exp)): 0.142 µM

NCAERIITL
EC50 (pBL50(exp)): 0.434 µM

NCPARIITL
EC50 (pBL50(exp)): 0.114 µM

NCPEAIITL
EC50 (pBL50(exp)): 0.193 µM

NCPEGYTSL
EC50 (pBL50(exp)): 0.0724 µM

NCPERAITL
EC50 (pBL50(exp)): 0.244 µM

NCPERIATL
EC50: 0.201 µM

NCPERIIAL [NCPERIIAL]
EC50 (pBL50(exp)): 0.141 µM

NCPERIITA
EC50 [1]: 0.257 µM

NCPERIITL
EC50 (pBL50(exp)): 0.0634 µM

NEPQRIEPL
EC50 (pBL50(exp)): 0.0962 µM

NSTWSTEGS
EC50: > 1000 µM

NYTSLIHSL
EC50: > 1000 µM

PLPSQAMDD [P L P S Q A M D D]
EC50 (pBL50(exp)): > 1000 µM

PLSPPKKKD [P L S P P K K K D]
EC50 (pBL50(exp)): 10.1 µM

PQSQGVVES
EC50: > 1000 µM

PVPLQLPPL
EC50: 3.16 µM

QYPKGDAWV
EC50 (pBL50(exp)): > 1000 µM

RVRQGYSPL
EC50 [2]: 0.0866 µM

SLEECDSEL [S L E E C D S E L]
EC50: 375 µM

SWPMQFDAL [SWPMQFDAL]
EC50 (pBL50(exp)): 0.269 µM

TDPWFHRSL
EC50 (pBL50(exp)): 0.339 µM

VAPQLTFGL
EC50 (pBL50(exp)): 0.0162 µM

VAPWNSLSL [V A P W N S L S L]
EC50 (pBL50(exp)): 0.703 µM

VDADDSHFV [V D A D D S H F V]
EC50: > 1000 µM

VIPMFSALS [VIPMFSALS]
EC50: 2.45 µM

VRPMRQWPL
EC50 (pBL50(exp)): 3.8 µM

VVPRRKAKI
EC50: > 1000 µM

WAPHTDTSL
EC50 (pBL50(exp)): 0.0126 µM

WGPGIIWAL [WGPGIIWAL]
EC50 (pBL50(exp)): 3.63 µM

WRPDVNMQL
EC50 (pBL50(exp)): 2.88 µM

YAQPQTTTP [Y A Q P Q T T T P]
EC50 (pBL50(exp)): 5.96 µM

YMPTASCDL
EC50 (pBL50(exp)): 0.0129 µM

YMTPSSRPL [Y M T P S S R P L]
EC50 (pBL50(exp)): > 1000 µM
